Patent US20150018301A1, “LRRK-2-Mediated Neuronal Toxicity” (THE JOHNS HOPKINS UNIVERSITY, priority 2009, published 2015)

Experiments:
LRRK2 WT [1] = target: T1, LRRK2 WT (Homo sapiens, UniProt Q5S007); assay: In vitro kinase assay: LRRK2-mediated MBP phosphorylation; type: biochemical; settings: for MBP phosphorylation Average ± SEM: compound 16 μM, 30° C., 15 min, normalized to absence of compound, mean ± S.E.M. of three experiments
LRRK2 WT [2] = target: T1, LRRK2 WT; assay: In vitro kinase assay: LRRK2 autophosphorylation; type: biochemical; settings: for LRRK2 autophosphorylation Average ± SEM: compound 16 μM, phosphorylation normalized to absence of compound, mean ± S.E.M. of three experiments

T1 sequence (Q5S007 whole entry): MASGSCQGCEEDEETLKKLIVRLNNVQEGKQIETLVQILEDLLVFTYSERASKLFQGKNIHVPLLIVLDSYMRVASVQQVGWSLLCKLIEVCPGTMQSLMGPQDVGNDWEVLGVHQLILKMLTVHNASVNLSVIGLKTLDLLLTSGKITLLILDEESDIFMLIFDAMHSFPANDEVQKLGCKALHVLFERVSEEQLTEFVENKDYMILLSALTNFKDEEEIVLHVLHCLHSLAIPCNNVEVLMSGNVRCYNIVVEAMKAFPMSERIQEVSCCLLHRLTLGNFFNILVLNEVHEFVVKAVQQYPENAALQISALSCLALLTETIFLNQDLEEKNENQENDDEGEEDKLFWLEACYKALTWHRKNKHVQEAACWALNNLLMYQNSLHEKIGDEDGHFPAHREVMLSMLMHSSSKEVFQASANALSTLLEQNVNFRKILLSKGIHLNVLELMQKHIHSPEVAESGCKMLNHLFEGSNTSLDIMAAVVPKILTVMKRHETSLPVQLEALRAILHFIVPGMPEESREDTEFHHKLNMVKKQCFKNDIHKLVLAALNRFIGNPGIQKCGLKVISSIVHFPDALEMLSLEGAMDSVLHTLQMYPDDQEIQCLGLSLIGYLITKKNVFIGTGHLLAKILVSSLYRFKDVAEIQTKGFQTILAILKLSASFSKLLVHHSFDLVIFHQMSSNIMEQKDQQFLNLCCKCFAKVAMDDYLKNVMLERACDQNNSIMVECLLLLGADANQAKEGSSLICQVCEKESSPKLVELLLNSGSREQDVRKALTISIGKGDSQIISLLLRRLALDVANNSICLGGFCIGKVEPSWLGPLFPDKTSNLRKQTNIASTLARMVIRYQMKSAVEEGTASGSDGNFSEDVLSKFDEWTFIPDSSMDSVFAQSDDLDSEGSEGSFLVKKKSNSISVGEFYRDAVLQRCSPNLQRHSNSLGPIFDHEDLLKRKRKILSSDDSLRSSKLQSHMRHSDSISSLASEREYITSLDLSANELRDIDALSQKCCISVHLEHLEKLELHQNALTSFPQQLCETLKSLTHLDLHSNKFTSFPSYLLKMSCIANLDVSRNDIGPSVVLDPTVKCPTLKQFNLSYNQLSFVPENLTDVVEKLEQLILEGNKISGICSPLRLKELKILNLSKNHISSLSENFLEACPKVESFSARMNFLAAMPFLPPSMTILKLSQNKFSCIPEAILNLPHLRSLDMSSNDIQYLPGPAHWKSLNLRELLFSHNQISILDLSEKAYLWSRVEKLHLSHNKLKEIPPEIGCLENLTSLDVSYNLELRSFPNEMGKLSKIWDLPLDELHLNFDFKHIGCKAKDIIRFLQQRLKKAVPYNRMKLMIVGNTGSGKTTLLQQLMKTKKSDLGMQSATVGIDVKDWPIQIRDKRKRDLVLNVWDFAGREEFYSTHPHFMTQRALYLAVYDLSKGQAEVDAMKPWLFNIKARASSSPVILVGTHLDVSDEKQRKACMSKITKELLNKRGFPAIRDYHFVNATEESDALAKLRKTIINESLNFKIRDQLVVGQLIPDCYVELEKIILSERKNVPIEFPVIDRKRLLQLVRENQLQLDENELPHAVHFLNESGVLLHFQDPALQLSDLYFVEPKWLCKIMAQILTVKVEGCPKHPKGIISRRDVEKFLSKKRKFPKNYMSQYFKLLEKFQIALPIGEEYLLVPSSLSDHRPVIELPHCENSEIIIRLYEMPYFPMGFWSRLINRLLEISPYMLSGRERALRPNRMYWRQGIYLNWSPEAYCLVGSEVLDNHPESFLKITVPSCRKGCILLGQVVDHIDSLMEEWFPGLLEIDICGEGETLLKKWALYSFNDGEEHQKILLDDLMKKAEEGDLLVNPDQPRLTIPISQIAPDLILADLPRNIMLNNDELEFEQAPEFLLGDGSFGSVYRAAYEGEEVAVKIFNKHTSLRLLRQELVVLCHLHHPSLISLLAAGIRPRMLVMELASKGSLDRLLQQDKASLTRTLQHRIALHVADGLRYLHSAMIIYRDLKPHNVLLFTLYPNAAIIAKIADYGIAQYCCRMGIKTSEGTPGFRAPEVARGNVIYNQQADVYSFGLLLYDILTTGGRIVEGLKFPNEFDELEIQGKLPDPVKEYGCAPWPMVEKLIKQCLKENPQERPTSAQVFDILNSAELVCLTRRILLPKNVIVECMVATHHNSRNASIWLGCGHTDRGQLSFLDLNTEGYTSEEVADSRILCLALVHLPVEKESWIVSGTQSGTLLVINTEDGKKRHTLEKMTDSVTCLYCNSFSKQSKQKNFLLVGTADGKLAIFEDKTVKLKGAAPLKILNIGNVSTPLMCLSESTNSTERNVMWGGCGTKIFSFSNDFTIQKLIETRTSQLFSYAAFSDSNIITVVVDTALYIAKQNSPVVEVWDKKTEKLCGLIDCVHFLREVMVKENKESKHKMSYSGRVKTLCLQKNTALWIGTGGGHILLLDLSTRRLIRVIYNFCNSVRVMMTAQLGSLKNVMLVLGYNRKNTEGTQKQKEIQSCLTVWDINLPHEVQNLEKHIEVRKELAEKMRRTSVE

Row | SMILES | MBP phosphorylation Average ± SEM (LRRK2 WT [1]) | LRRK2 autophosphorylation Average ± SEM (LRRK2 WT [2]) | effect on LRRK2-mediated phosphorylation of MBP (LRRK2 WT [1]; screen at 16 μM) | effect on LRRK2 autophosphorylation (LRRK2 WT [2]; screen at 16 μM)
1 | C#COC1C(C(=O)O)[C@H]2CC[C@@H]1O2 (stereo partly shown) [Inhibitor 73] | 128.9 ± 9.4 % of control | 78.8 ± 5.1 % of control | – | –
2 | N#CC(C#N)=C(N)/C(C#N)=C/c1ccc2[nH]ccc2c1 [Inhibitor 27] | 79.5 ± 17.8 % of control | 73.2 ± 8.8 % of control | – | –
3 | Cc1ccc(-c2nn(C(C)(C)C)c3ncnc(N)c23)cc1 [Inhibitor 24] | 103.6 ± 60.1 % of control | 88.3 ± 17.1 % of control | – | –
4 | C/C(O)=C(\C#N)C(=O)Nc1cc(Br)ccc1Br [Inhibitor 50] | 138.8 ± 53.5 % of control | 66.8 ± 14.2 % of control | – | –
5 | CC(C)(C)n1nc(-c2ccc(Cl)cc2)c2c(N)ncnc21 [Inhibitor 52] | 98.1 ± 44.2 % of control | 45.7 ± 22.1 % of control | – | –
6 | N#C/C(=C\c1ccc(O)c(O)c1)C(N)=S [Inhibitor 14] | 110.5 ± 29.3 % of control | 80.5 ± 32.2 % of control | – | –
7 | C[C@@]12C(=O)OC(=O)[C@]1(C)[C@H]1CC[C@@H]2O1 [Inhibitor 72] | 109.7 ± 22.4 % of control | 69.1 ± 8.8 % of control | – | –
8 | N#CC(C#N)=Cc1cc(O)c(O)c([N+](=O)[O-])c1 [Inhibitor 17] | 116.0 ± 9.8 % of control | 89 ± 54.9 % of control | – | –
9 | CC1(C)[C@H](C=C(Br)Br)[C@@H]1C(=O)O[C@H](C#N)c1cccc(Oc2ccccc2)c1 [Inhibitor 81] | 99.6 ± 23.1 % of control | 73.9 ± 2.2 % of control | – | –
10 | N#CC(C#N)=Cc1ccc(O)c(O)c1 [Inhibitor 11] | 55.5 ± 56.5 % of control | 66.9 ± 2.0 % of control | – | –
11 | Cl.c1ccc(C2CN3CCSC3=N2)cc1 (stereo not shown) [Inhibitor 79] | 138.8 ± 33.9 % of control | 75.0 ± 2.3 % of control | – | –
12 | N#C/C(=C\c1ccc(O)c(O)c1)C(=O)NCc1ccccc1 [Inhibitor 25] | 82.9 ± 17.7 % of control | 78.5 ± 5.8 % of control | – | –
13 | N#CC(=C(/N)Sc1ccccc1N)/C(C#N)=C(\N)Sc1ccccc1N [Inhibitor 2] | 101.0 ± 105 % of control | 86.9 ± 10.3 % of control | – | –
14 | CN[C@@H]1C[C@H]2O[C@@](C)([C@@H]1OC)n1c3ccccc3c3c4c(c5c6ccccc6n2c5c31)C(=O)NC4 [Inhibitor 6, Staurosporine, reference compound] | 9.2 ± 6.4 % of control | 1.9 ± 1.0 % of control | substantially inhibited | substantially inhibited
15 | N#C/C(=C\c1ccc(O)c(O)c1)C(N)=O [Inhibitor 13] | 117.3 ± 18.5 % of control | 81.0 ± 13.4 % of control | – | –
16 | CC(C)C(C(=O)OC(C#N)c1cccc(Oc2ccccc2)c1)c1ccc(Cl)cc1 (stereo not shown) [Inhibitor 82] | 61.5 ± 54.0 % of control | 80.4 ± 13.0 % of control | – | –

Row | SMILES | MBP phosphorylation Average ± SEM (LRRK2 WT [1]) | LRRK2 autophosphorylation Average ± SEM (LRRK2 WT [2]) | effect on LRRK2-mediated phosphorylation of MBP (LRRK2 WT [1]; screen at 16 μM) | effect on LRRK2 autophosphorylation (LRRK2 WT [2]; screen at 16 μM)
17 | CC(C)n1cnc2c(NCc3ccccc3)nc(NCCO)nc21 [Inhibitor 45] | 111.7 ± 69.7 % of control | 56.2 ± 30.8 % of control | – | –
18 | CC1CNCCN1S(=O)(=O)c1cccc2cnccc12 (stereo not shown) [Inhibitor 4] | 88.0 ± 26.4 % of control | 80.3 ± 8.2 % of control | – | –
19 | CC(C)(C)c1cc(C=C(C#N)C#N)cc(C(C)(C)C)c1O [Inhibitor 20] | 120.7 ± 29.4 % of control | 109.0 ± 19.7 % of control | – | –
20 | C=CC(=O)c1ccc2ccccc2c1 [Inhibitor 64] | 123.7 ± 26.3 % of control | 70.7 ± 4.2 % of control | – | –
21 | CC1(C)[C@H](C=C(Cl)Cl)[C@@H]1C(=O)O[C@H](C#N)c1cccc(Oc2ccccc2)c1 [Inhibitor 80] | 76.9 ± 13.7 % of control | 66.4 ± 17.4 % of control | – | –
22 | O=S(=O)(NCCNC/C=C/c1ccc(Br)cc1)c1cccc2cnccc12 [Inhibitor 35] | 85.3 ± 54.2 % of control | 90.8 ± 2.5 % of control | – | –
23 | N#CC(C#N)=Cc1ccc(O)cc1 [Inhibitor 83] | 118.2 ± 51.8 % of control | 68.6 ± 35.5 % of control | – | –
24 | N#CC(C#N)=Cc1ccc([N+](=O)[O-])c(O)c1 [Inhibitor 26] | 114.3 ± 14.1 % of control | 82.3 ± 10.5 % of control | – | –
25 | COc1cc2ncnc(Nc3cccc(Cl)c3)c2cc1OC [Inhibitor 18] | 110.0 ± 44.0 % of control | 63.7 ± 28.0 % of control | – | –
26 | C#COC1(C)[C@@H]2CC[C@@H](O2)C1(C)C(=O)O (stereo partly shown) [Inhibitor 71] | 99.8 ± 3.4 % of control | 75.9 ± 2.1 % of control | – | –
27 | CC(=O)c1c(O)c(C)c(O)c(Cc2c(O)c3c(c(C(=O)/C=C/c4ccccc4)c2O)OC(C)(C)C=C3)c1O [Inhibitor 58] | 147.2 ± 64.3 % of control | 28.1 ± 39.8 % of control | – | –
28 | COC[C@H]1OC(=O)c2coc3c2[C@@]1(C)C1=C(C3=O)[C@@H]2CCC(=O)[C@@]2(C)C[C@H]1OC(C)=O [Inhibitor 30] | 66.8 ± 29.1 % of control | 83.0 ± 23.6 % of control | – | –
29 | COC(=O)/C=C/c1cc(O)ccc1O [Inhibitor 61] | 93.9 ± 11.5 % of control | 73.0 ± 5.3 % of control | – | –
30 | CN([C@@H](Cc1ccc(OS(=O)(=O)c2cccc3cnccc23)cc1)C(=O)N1CCN(c2ccccc2)CC1)S(=O)(=O)c1cccc2cnccc12 [Inhibitor 40] | 125.2 ± 68.8 % of control | 83.1 ± 22.1 % of control | – | –
31 | C[S+]([O-])c1ccc(-c2nc(-c3ccc(F)cc3)c(-c3ccncc3)[nH]2)cc1 (stereo not shown) [Inhibitor 3] | 105.9 ± 15.9 % of control | 75.1 ± 7.8 % of control | – | –

More lines, main results first:

Row | MBP phosphorylation Average ± SEM (LRRK2 WT [1]) | LRRK2 autophosphorylation Average ± SEM (LRRK2 WT [2]) | SMILES | effect on LRRK2-mediated phosphorylation of MBP (LRRK2 WT [1]; screen at 16 μM) | effect on LRRK2 autophosphorylation (LRRK2 WT [2]; screen at 16 μM)
32 | 138.2 ± 36.9 % of control | 120.8 ± 54.1 % of control | O=P(O)(O)CCc1ccc2ccccc2c1O [Inhibitor 21] | – | –
33 | 104.3 ± 14.6 % of control | 89.4 ± 12.5 % of control | Cc1cc2ncc(-c3ccccc3)nc2cc1C [Inhibitor 19] | – | –
34 | 81.5 ± 17.6 % of control | 81.7 ± 27.1 % of control | COc1cc(/C=C(\C#N)C(N)=O)cc(CSc2nc3ccccc3s2)c1O [Inhibitor 8] | – | –
35 | 63.1 ± 66.7 % of control | 69.4 ± 37.9 % of control | O=c1c(-c2ccc(O)cc2)coc2cc(O)cc(O)c12 [Inhibitor 59] | – | –
36 | 141.0 ± 50.8 % of control | 81.0 ± 31.9 % of control | O=c1c(-c2ccc(O)cc2)coc2cc(O)ccc12 [Inhibitor 60] | – | –
37 | 75.6 ± 56.9 % of control | 56.1 ± 27.6 % of control | N#C/C(=C\c1ccc(O)c(O)c1)C(=O)Nc1ccccc1 [Inhibitor 7] | – | –
38 | 124.1 ± 37.2 % of control | 63.9 ± 12.0 % of control | CC(C)CC(NC(=O)[C@H](CCC(=O)O)NC(=O)CNC(=O)c1ccc(/C=C/C(=O)O)cc1)C(N)=O (stereo partly shown) [Inhibitor 84] | – | –
39 | 89.4 ± 71.9 % of control | 87.3 ± 14.8 % of control | Cl.O=S(=O)(c1cccc2c(I)cccc12)N1CCCNCC1 [Inhibitor 42] | – | –
40 | 70.1 ± 40.5 % of control | 39.2 ± 39.9 % of control | O=c1c(O)c(-c2ccc(O)c(O)c2)oc2cc(O)cc(O)c12 [Inhibitor 62, Quercetin dihydrate] | – | –
41 | 75.5 ± 3.1 % of control | 79.3 ± 3.6 % of control | O=c1cc(N2CCOCC2)oc2c(-c3ccccc3)cccc12 [Inhibitor 29] | – | –
42 | 50.2 ± 29.4 % of control | 80.9 ± 3.0 % of control | CNCCNS(=O)(=O)c1cccc2cnccc12 [Inhibitor 36] | – | –
43 | 133.2 ± 17.6 % of control | 74.6 ± 1.7 % of control | Cl.c1ccc([C@H]2CN3CCSC3=N2)cc1 [Inhibitor 78] | – | –
44 | 106.7 ± 25.4 % of control | 81.1 ± 17.3 % of control | N=C(N)NCCNS(=O)(=O)c1cccc2cnccc12 [Inhibitor 37] | – | –
45 | 45.2 ± 46.1 % of control | 90.8 ± 30.7 % of control | N#C/C(=C/c1cc(Cl)cc(Cl)c1)c1cccnc1 [Inhibitor 10] | – | –
46 | 76.7 ± 4.5 % of control | 69.8 ± 12.0 % of control | CC(C)(C)c1cc(/C=C(\C#N)C(N)=S)cc(C(C)(C)C)c1O [Inhibitor 28] | – | –
47 | 120.4 ± 64.7 % of control | 84.3 ± 21.9 % of control | O=S(=O)(c1cccc2cnccc12)N1CCCNCC1 [Inhibitor 38] | – | –
48 | 65.9 ± 31.4 % of control | 62.8 ± 15.8 % of control | N#CC(C#N)=Cc1cc(O)c(O)c(O)c1 [Inhibitor 12] | – | –
49 | 123.2 ± 33.8 % of control | 79.2 ± 24.2 % of control | COCc1cc(O)c(O)c(O)c1-c1c(COC)cc(O)c(O)c1O [Inhibitor 67] | – | –
